Experimental findings from PubChem BioAssay AID463178 (University of Pittsburgh Molecular Library Screening Center, 2010) are described below.

Each structure is given as a SMILES string. Calls of active or inactive are those of the source.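 How the source made its calls: active means IC50 below a set limit in both duplicate runs and mean IC50 below a set limit; inconclusive means IC50 above a set limit in only one run; inactive means IC50 above a set limit in both runs and mean.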

The assay deals with Jurkat FADD-/- TNF-alpha necroptosis, CellTiter-Glo ATP, 24 h. Briefly: rescue of FADD-deficient Jurkat cells, IC50 – duplicate IC50, dose response (AID 463178).
As usually defined, the IC50 is the point on the concentration scale where inhibition reaches its midpoint. For `COc1ccc(/C=N/Nc2ccccn2)cc1O`, the IC50 was 14.8 µM.

Take `O=C1CC(c2ccccc2)C(=O)N1c1cccc(O)c1` (centres undefined): the IC50 was 12.9 µM.

For `Clc1ccc(C2=NNC(=NCc3ccccc3)SC2)cc1`, the IC50 is > 20 µM (inactive).

Turning to `O=C(Cn1cnc2ccc(Br)cc2c1=O)c1cccs1`, the IC50 was > 20 µM (inactive).

Take `O=C(COc1ccccc1Cl)NC(=O)NC1CCCC1`: the IC50 was 12.6 µM.

Regarding `COc1ccc(NC(=O)C(OC)c2ccccc2)cc1Cl` (centres undefined), the IC50 was 12 µM.

On to `O=C(Cc1c(F)cccc1Cl)Nc1ncc([N+](=O)[O-])s1`, for which the IC50 is > 20 µM (inactive).

Regarding `Cc1ccc(NC(=O)C2COc3ccccc3O2)nc1` (centres undefined), the IC50 is 10 µM.

Turning to `CC(=O)N(c1ccccc1)c1nnc(-c2cnc(C)cn2)s1`, the IC50 is 10.6 µM.
